The values below come from patent publication US20250289810A1, “Compounds As NLRP3 Inflammasome Inhibitors And Their Use As Medicaments” (MAM-AGE S.R.L., priority 2022, published 2025).

One series addresses T1, NLRC4 inflammasome (Mus musculus, UniProt Q3UP24).
T1 construct: endogenous in cells; host or cells: mouse BMDM, LPS-primed, transfected with S. typhimurium flagellin
Put plainly: NLRC4 inflammasome activation in LPS-primed BMDM transfected with flagellin of S. typhimurium (IL-1β ELISA). In kind it is cell-based. Conditions: LPS 100 ng/ml 3 hours, compound 1 μm 30 minutes, flagellin 100 ng/ml 2 hours. The protocol:
(§1) The selectivity of compound 4 as an inhibitor of NLRP3 was then evaluated with respect to NLRC4 and absent in melanoma 2 (AIM2) inflammasomes. For activation of NLRC4 inflammasome, BMDM were treated with LPS (100 ng/ml) for 3 hours. Subsequently, the culture medium was removed and replaced with a serum-free medium containing compound 4 (1 μm for 30 minutes), finally the cells were transfected with flagellin (100 ng/ml) by S. typhimurium for 2 hours. The supernatant was tested by ELISA. […] The effect of the same compounds was examined on the non-NLR AIM2 inflammasome by transfecting BMDM with the dsDNS analogue Poly (dA:dT).
The selectivity of compounds 6c and 10 of Formula (III) as inhibitors of NLRP3 was then evaluated with respect to NLRC4 inflammasome. For activation of NLRC4 inflammasome, BMDM were treated with LPS (100 ng/ml) for 3 hours. Subsequently the culture medium was removed and replaced with a serum-free medium containing […] (1 μm for 30 minutes), finally the cells were transfected with flagellin (100 ng/ml) by S. typhimurium for 2 hours. The supernatant was tested by ELISA.

For another series, the target named is T2, AIM2 inflammasome (Mus musculus, UniProt Q91VJ1).
T2 construct: non-NLR AIM2 inflammasome by transfecting BMDM with the dsDNS analogue Poly (dA:dT); endogenous in cells; host or cells: mouse BMDM transfected with poly(dA:dT)
T2 sequence (Q91VJ1 1-354): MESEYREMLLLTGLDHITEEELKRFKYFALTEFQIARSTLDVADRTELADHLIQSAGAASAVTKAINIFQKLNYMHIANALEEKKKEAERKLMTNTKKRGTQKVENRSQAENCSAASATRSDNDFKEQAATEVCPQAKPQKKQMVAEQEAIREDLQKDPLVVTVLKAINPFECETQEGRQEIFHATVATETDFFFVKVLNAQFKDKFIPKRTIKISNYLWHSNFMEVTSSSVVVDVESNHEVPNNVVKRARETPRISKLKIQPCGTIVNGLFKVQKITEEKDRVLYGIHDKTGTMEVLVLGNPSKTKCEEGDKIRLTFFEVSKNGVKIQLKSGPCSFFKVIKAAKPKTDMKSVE
Briefly: AIM2 inflammasome activation in BMDM transfected with Poly(dA:dT) (IL-1β secretion). In kind it is cell-based. As for the experimental part: as §1

The test system of a further series is THP-1 cells. Put plainly: RealTime-Glo MT Cell Viability assay on THP-1 cells. In kind it is cell-based, human. Conditions: 1 μM, 48 hours. As for the experimental part:
(§2) Cell viability was evaluated on THP-1 cells using realtime-Glo” MT Cell Viability Assay (Promega Italia, MI). Briefly, the cells were seeded in a 96 multiwell (10×10^4 cells/well), treated with the selected compound of Formula (II), and incubated for 48 hours. After treatment, the cells were incubated for 10 minutes in the incubator with the realtime-Glo” reagent following protocol. The luminescence was measured every 12 hours in the Glomax Multi Detection System Promega. The luminescence signal correlates with the number of metabolically active cells.
as §2, with “compound,” for “compound of Formula (II),”, “cells. The results represent the mean luminescence values (RLU)±SEM.” for “cells.”

Series [1] relates to B16-F10cytLUC melanoma cells. Briefly: Tumor growth of B16-F10cytLUC melanoma cells inoculated subcutaneously in C57BL/6 mice. In kind it is in vivo. The conditions noted are these: 25 mg/Kg intraperitoneal thrice weekly.
Description: A total of 1×10^6 B16-F10 melanoma cells transfected with cytluc (B16-F10cytLUC) were subcutaneously inoculated into females, 6- to 8-week-old C57BL/6 mice. Tumor growth was monitored daily, and tumor volumes were measured every other day with calipers using the following equation: Volume=π/6×(a×b2), where “a” is the major diameter and “b” is the minor diameter. As soon as the mass was palpable, mice were randomly divided (5 mice per group) into the treatment groups and the control group, with 5 mice per group. For NLRP3 inflammasome inhibition, mice were intraperitoneal injected with selected molecules thrice weekly at 25 mg/Kg; control mice received equal volumes of DMSO.
Luciferase luminescence was followed by a total body luminometer (IVIS Lumina, Caliper-PerkinElmer).
The subject of a further series is B16-F10 melanoma cells. Put plainly: B16-F10 cancer cell proliferation (crystal violet growth curve). In kind it is cell-based. The conditions noted are these: 1 μM, 5 days. As for the experimental part:
B16-F10 cells were treated with selected inhibitors (1 μM) then were counted with a Burker chamber and plated in five sets of 4 wells of a 24-well plate. Starting from the following day (day 1) 1 set of wells (at days 2, 3, 4 and 5) was washed once with PBS, fixed in 4% formaldehyde solution for 15 min at room temperature, and then kept in PBS at 4° C. At day 5, all the wells were stained with crystal violet for 20 minutes, lysed with 10% acetic acid, then the absorbance was read at 595 nm.

In another series the test system is B16-F10 cells. Put plainly: Transwell co-culture of peritoneal macrophages and B16-F10 cells (tumor microenvironment). The conditions noted are these: macrophages: LPS 1 μg/mL 2 hours, compound 1 μM 30 minutes, ATP 1 hour; 48 h. In kind it is cell-based. As for the experimental part:
Co-culture of peritoneal macrophages and B16-F10 cells were performed using Transwell chambers with 0.4-μm pores on the membranes (Corning, Corning, NY, USA). Peritoneal macrophages and B16-F10 cells were cultured in the lower and upper compartments of the Transwell chamber, respectively, for 48 h. Peritoneal macrophages were seeded at a density of 2×10^5 cells and treated with LPS (1 μg/mL) for 2 hours, then DMSO or compound 4 (1 μM) of Formula (II) for 30 minutes and finally stimulated with ATP for 1 hour. B16-F10 cells were seeded at a density of 2×10^3 cells each well.
Co-culture of peritoneal macrophages and B16-F10 cells were performed using Transwell chambers with 0.4-μm pores on the membranes (Corning, Corning, NY, USA). Peritoneal macrophages and B16-F10 cells were cultured in the lower and upper compartments of the Transwell chamber, respectively, for 48 h. Peritoneal macrophages were seeded at a density of 2×10^5 cells and treated with LPS (1 μg/mL) for 2 hours, then DMSO or compounds of Formula (III) (1 μM) for 30 minutes and finally stimulated with ATP for 1 hour. B16-F10 cells were seeded at a density of 2×10^3 cells each well.

For series [2] the following is noted: preclinical studies; cited from earlier work.
For series [3] the following is noted: clinical development, phase II; cited from earlier work.
The test system of the next series is chronic myeloid leukemia. The conditions noted are these: cited from earlier work.
For series [4], the system named is pancreatic adenocarcinoma. Conditions: cited from earlier work.
Series [5] deals with head and neck squamous cell carcinoma. Conditions: head and neck squamous cell carcinoma mouse model; cited from earlier work.

Each structure is given as a SMILES string. “Also recorded” adds a separate entry of the source.

T1 sequence (Q3UP24 whole entry): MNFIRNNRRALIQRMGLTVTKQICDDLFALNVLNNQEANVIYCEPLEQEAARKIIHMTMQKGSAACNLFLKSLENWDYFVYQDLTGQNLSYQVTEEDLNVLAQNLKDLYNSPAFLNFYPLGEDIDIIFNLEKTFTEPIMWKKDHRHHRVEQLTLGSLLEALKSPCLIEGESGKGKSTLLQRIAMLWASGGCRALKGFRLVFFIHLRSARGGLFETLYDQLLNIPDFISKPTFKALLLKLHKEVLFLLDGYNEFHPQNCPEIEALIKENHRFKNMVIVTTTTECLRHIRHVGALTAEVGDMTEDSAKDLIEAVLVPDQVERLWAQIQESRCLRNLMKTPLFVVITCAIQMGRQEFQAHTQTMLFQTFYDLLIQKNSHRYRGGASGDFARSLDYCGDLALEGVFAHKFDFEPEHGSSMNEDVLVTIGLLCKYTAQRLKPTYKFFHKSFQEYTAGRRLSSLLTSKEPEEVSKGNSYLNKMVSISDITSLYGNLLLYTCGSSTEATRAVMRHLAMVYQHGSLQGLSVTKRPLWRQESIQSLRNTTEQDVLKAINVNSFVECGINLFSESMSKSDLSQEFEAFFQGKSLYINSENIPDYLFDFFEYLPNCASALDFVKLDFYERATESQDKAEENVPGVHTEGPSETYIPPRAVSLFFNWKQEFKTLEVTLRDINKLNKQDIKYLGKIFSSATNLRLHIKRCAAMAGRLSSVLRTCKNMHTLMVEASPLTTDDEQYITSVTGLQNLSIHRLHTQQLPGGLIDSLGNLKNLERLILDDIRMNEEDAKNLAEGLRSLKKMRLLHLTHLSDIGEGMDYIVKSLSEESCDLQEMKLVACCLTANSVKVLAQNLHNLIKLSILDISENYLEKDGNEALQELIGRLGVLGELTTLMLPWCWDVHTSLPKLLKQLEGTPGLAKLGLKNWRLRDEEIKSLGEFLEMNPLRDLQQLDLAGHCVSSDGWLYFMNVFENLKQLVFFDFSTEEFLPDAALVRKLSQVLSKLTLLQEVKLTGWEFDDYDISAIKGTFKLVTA

For the molecule `Nc1ccc(S(=O)(=O)N2Cc3ccccc3C[C@H]2C(=O)Nc2c3c(cc4c2CCC4)CCC3)cc1` [Compound 4 of Formula (II), (S)-2-((4-aminophenyl)sulfonyl)-N-(1,2,3,5,6,7-hexahydro-s-indacen-4-yl)-1,2,3,4-tetrahydroisoquinoline-3-carboxamide], at NLRC4 inflammasome, the “Effect on activation of NLRC4 inflammasome triggered by flagellin S. typhimurium” value (shortened to “Effect on activation”) is “no effect”. Further, the “IL-1β secretion on AIM2 inflammasome activation” value at AIM2 inflammasome was “A reduction in the amount of IL-1β secretion was not observe”. Besides, in the series on THP-1 cells, the “Cytotoxicity / cell viability of THP-1 cells” value (from here on “Cytotoxicity / cell viability”) was “no cytotoxicity”. The “Reduction of tumor mass vs vehicle (DMSO)” value in series [1] was “about 50%”. For the same molecule, the “Direct effect on cell proliferation of B16-F10 melanoma cells” value in the series on B16-F10 melanoma cells was “no direct effect”. Besides, the “Growth of B16-F10 cells co-cultured with treated peritoneal macrophages” value in the series with B16-F10 cells was “treated with the vehicle alone grew more than B16-F10 cells in contact with peritoneal macrophages treated with compound 4”.

Consider `CC(C)[C@H](NS(=O)(=O)c1ccc([N+](=O)[O-])cc1)C(=O)Nc1c2c(cc3c1CCC3)CCC2` [Compound 6c of Formula (III), (S)—N-(1,2,3,5,6,7-hexahydro-s-indacen-4-yl)-3-methyl-2-((4-nitrophenyl)sulfonamido)butanamide], for which the “Effect on activation” value at NLRC4 inflammasome is “no effect”. Besides, the “Cytotoxicity / cell viability” value with THP-1 cells is reported as “no cytotoxicity”.

As to `Nc1ccc(S(=O)(=O)N[C@@H](Cc2ccc(O)cc2)C(=O)Nc2c3c(cc4c2CCC4)CCC3)cc1` [Compound 10 of Formula (III), (S)-2-((4-aminophenyl)sulfonamido)-N-(1,2,3,5,6,7-hexahydro-s-indacen-4-yl)-3-(4-hydroxyphenyl)propanamide], at NLRC4 inflammasome, the “Effect on activation” value was “no effect”. In addition, the “Cytotoxicity / cell viability” value in the series on THP-1 cells is recorded as “no cytotoxicity”.

Turning to `CC(C)(O)c1coc(S(=O)(=O)NC(=O)Nc2c3c(cc4c2CCC4)CCC3)c1` [MCC950, N-((1,2,3,5,6,7-hexahydro-s-indacen-4-yl)carbamoyl)-4-(2-hydroxypropan-2-yl)furan-2-sulfonamide], the Oral bioavailability entry in [2] was “good oral bioavailability”. Further, in series [3], the “Serum liver enzyme levels / hepatotoxicity” value is “hepatotoxicity problems; also recorded: elevation of serum liver enzyme levels”. For the same molecule, the Cell proliferation result (in the series on chronic myeloid leukemia; in series [4]) was “suppress cell proliferation” in each case. For the same molecule, in series [5], the Tumor growth entry is on record as “delay tumor growth”.
